Laboratory results published in patent US8592451B2, “Reversible nondepolarizing neuromuscular blockade agents and methods for their use” (Cornell University, priority 2009, dated 2013).

How the values were obtained:
[1] = L-cysteine adduction kinetics in vitro (HPLC); format: physicochemical; conditions: pH 7.4, 37° C.; for NMBA peak area / [NMBA] remaining / ln* = ln (([NMBA]t[L-cysteine]t=0)/([NMBA]t=0[L-cysteine]t)): gantacurium 200 μg/mL + L-cysteine
Procedure: In a second experiment, to evaluate degradation in the presence of L-cysteine, buffered solutions (pH 7.4) of gantacurium, CW 002 or CW 011 were freshly prepared at 37° C. to give experimental concentrations of 1000 μg/mL (CW 002 and CW 011) and 200 μg/mL (gantacurium), after addition to and mixing with a 5% Molar excess of L-cysteine at time=0.
The concentration of neuromuscular blocking agent/parent compound remaining at specified time points after mixing was determined by high performance liquid chromatography. The concentration of blocking agent at each time point was determined from a separately prepared reaction mixture, due to the rapid rate of L-cysteine adduction. The reaction rate constant for the second order reaction of each neuromuscular blockade agent (NMBA) with L-cysteine was derived by plotting the natural log of ([NMBA]t[L-cysteine]t=0/[NMBA]t=0[L-cysteine]t) vs. time.
Concentrations selected were 200, 100 and 50 μg/ml which are approximately proportional to the relative potencies (ED 95) of gantacurium, CW 002 and CW 011 respectively. A degradation (adduction) pathway in the presence of L-cysteine for each of the three compounds was proposed.
The reaction of L-cysteine with CW 002, CW 011 or gantacurium is first order in the case of both the neuromuscular blockade agent (NMBA) and L-cysteine, represented by the rate equation (1). d[Adduct]/dt=−d[NMBA]/dt=ka[NMBA][L-cysteine] (1)
Calculation of the L-cysteine adduction half time requires experimental derivation of the reaction rate constant, ka, for each compound. The initial concentrations of NMBA and L-cysteine are unequal in the experiments conducted for this study, thus integration of equation 1 gives equation 2, where [NMBA]0 is the NMBA concentration at time equals 0 and [NMBA]t is the NMBA concentration at a time point, t.
[formula] A plot of the ln(([NMBA]t [L-cysteine]0)/([NMBA]0 [L-cysteine]t)) versus time (ln* vs. t) gives a line, with slope equal to ka([NMBA]0−[L-cysteine]0). An adduction reaction half time can be calculated by solving for ka to be used in equation 3.
NMBA standard solutions were prepared by a method similar to that used to prepare hydrolysis standards. The standards were prepared at 1000 μg/mL for CW 002 and CW 011 and 200 μg/mL for gantacurium.
Solutions used for determination of NMBA concentration at the reported times for CW 002 and CW 011 were prepared as follows: L-cysteine hydrochloride monohydrate was charged to a volumetric flask in de-ionized water. A 5 mL aliquot of the L-cysteine solution (1.05 equiv. L-cysteine with respect to NMBA) was transferred by volumetric pipette to a flask held at 37.0±0.3° C. CW 002 or CW 011 was then charged to a separate 25 mL volumetric flask and diluted to volume with pH 7.4 phosphate buffer at 37.0° C. The NMBA solution was then immediately transferred to the flask containing L-cysteine to give an initial NMBA concentration of 1000 μg/mL. Solutions used for determination of gantacurium concentration versus time were prepared in a similar manner to give an initial concentration of 200 μg/mL. T=0 was defined as the time of addition of NMBA solution to L-cysteine solution. The times listed in the results table show the point of HPLC sample injection following mixing of L-cysteine and NMBA at time=0 (Table 1, below).
Rate constants were calculated using equation (3) and the slope of the trend line derived from each data set. The strong linear correlation of the data within each set supports the use of second order kinetics for analysis of the cysteine adduction reactions.
Reaction half times were calculated using equation 4 and the experimentally determined rate constants. The initial NMBA concentrations were chosen to reflect the relative potency observed in vivo.

[2] = system: twitch of the extensor digitorum; assay: Reversal of neuromuscular blockade by L-cysteine or neostigmine in anesthetized rhesus monkeys; format: in vivo, rhesus monkeys (Macaca mulatta)
Procedure: A control dose of 0.15 mg/kg CW 002 was allowed to recover spontaneously to TOF 110-120%. A second dose was given 60 minutes later, followed one minute afterwards by either neostigmine (0.05 mg/kg+atropine 0.05 mg/kg) or L-cysteine (10, 20, 30 or 50 mg/kg). Total duration and 5-95% recovery intervals were compared during spontaneous recovery vs. antagonism by L-cysteine or reversal by neostigmine.
This series of paired comparisons was designed to generate dose-response data comparing spontaneous recovery of high doses of CW 011 (from 4 to 64× ED95) versus immediate antagonism at +1 min by an optimal dose of L-cysteine (50 mg/kg), previously determined during studies of immediate antagonism of CW 002. This experiment was done to explore the limits of chemical antagonism by L-cysteine of these olefinic diester neuromuscular blocking drugs, using CW 011 as a typical example with an intermediate duration of action. Five groups of animals first received a control dose of CW 011 at 4, 8, 16, 32 or 64× ED 95 (0.1 to 1.6 mg/kg). Sixty minutes after spontaneous recovery of the control dose to TOF 110-120%, the same dose was repeated, followed 1 min later by L-cysteine (50 mg/kg). Total duration of action and 5-95% recovery interval were compared during spontaneous recovery and following antagonism by L-cysteine
The reversal of neuromuscular blockade by cysteine (5-50 mg/kg i.v.) was studied. Reversal was tested as follows: full paralysis was induced by injection of a dose of approximately 2-6× ED 95 of the compound in question. After spontaneous recovery of this dose, a second identical dose was given 15-30 min later. Cysteine was then given at +1 min after injection of the neuromuscular blocking drug at a point where no twitch was apparent (“immediate reversal”) or at the beginning of recovery from neuromuscular blockade at two percent twitch height (“classical reversal”). Comparisons were made among compounds with respect to rapidity and ease of cysteine reversal, by comparing 5-95% recovery times, and total durations of action (injection to 95% twitch recovery). Spontaneous recovery was compared with cysteine-accelerated recovery. […]

[3] = system: twitch of the extensor digitorum; assay: Neuromuscular blocking potency and duration in anesthetized rhesus monkeys; format: in vivo, rhesus monkeys (Macaca mulatta)
Procedure: Experiments were approved by the Institutional Animal Care and Use Committee of Weill Medical College of Cornell University (New York, N.Y.) and of Albany Medical College (Albany, N.Y.), where the studies were conducted. A colony of 10 adult male monkeys (Macaca mulatta) weighing 8-18 kg was studied at ˜6 week intervals. Animals were housed and cared for in accordance with the Guide for Care and Use of Laboratory Animals (National Research Council, Washington, D.C.). They were fed a standard Old World monkey diet, enriched with fruits and vegetables, and other dietary novelties and were followed throughout the study to verify normal health by physical examination, body weight, and clinical laboratory studies (Complete Blood Count, Blood Urea Nitrogen and creatinine, and liver function tests).
On the day of each study, monkeys received ketamine (7-10 mg/kg i.m.) followed by tracheal intubation under topical anesthesia with 4% lidocaine. Ventilation was controlled at 10 mL/kg and 20 breaths/min with isoflurane (1.0-2.0%) and N2O/O2 (2:1 mixture). Ringers lactate was administered at ˜10 ml kg^−1 h^−1. Arterial pressure was monitored from a femoral, superficial tibial, or radial (22 gauge) cannula. Heart rate was measured by tachograph from the arterial pulse wave. Core temperature was kept at 36.5-38.0° C. by warming blankets. Electrocardiogram and pulse oximetry were monitored continuously.
Needle electrodes (25 gauge) transmitting square-wave pulses of 0.2 msec duration at supramaximal voltage which were generated by a Grass S-88 stimulator (Grass Instruments, Quincy, Mass.) were placed at the peroneal nerve at the knee to elicit twitch responses of the extensor digitorum of the foot at 0.15 Hz. A small slip (10-20%) of the tendon was dissected free under sterile technique and tied to a Grass FT 10 force transducer (Grass Instruments, Quincy, Mass.) at a baseline tension of 50 gm. Train-of four stimulation (TOF, 2 Hz for 2 sec) was interposed at appropriate points, especially 1-2 min prior to NMBA dosing and following recovery of twitch to 95% of baseline, where TOF was subsequently evaluated every 1-2 min.
Recordings of circulatory and neuromuscular data were made on a Grass 7B polygraph (Grass Instruments). A baseline period of 15-20 min was allowed for stabilization of recordings prior to dosing.^2
Dose-response curves for twitch blockade by gantacurium, CW 002, CW 011, cisatracurium, CW002-Cys, NB 938-69, NB 1064-81, NB 802-17 (CW 001), NB 832-65, and NB 1163-79, structures of which are all shown above, were generated as follows. […] Successive doses were separated by at least three estimated half lives beyond complete recovery of the previous dose to TOF of 110-120%, which is normal for these monkeys. Only the first one or two doses yielding 5 to 99% blockade were included from any single experiment for computation of dose-response data.
Comparative studies of spontaneous recovery versus antagonism/reversal were done at least 3 estimated half-lives following dose-response studies.
ED 50 and ED 95 were computed from the regression of log dose vs. the logit of percentage blockade of twitch.
CW002-Cys, the L-cysteine adduct of CW 002, was available in limited quantity and was administered in cumulative fashion to three animals to compare approximate potency and duration of effect versus its parent compound CW 002.

Row | SMILES | Plot Slope (ln* vs. time) ([1]; L-cysteine adduction, data of Table 1) | NMBA peak area ([1]; Trial 1, 59 Sec) [mAU's] | [NMBA] remaining ([1]; Trial 1, 59 Sec) [µM] | ln* = ln (([NMBA]t[L-cysteine]t=0)/([NMBA]t=0[L-cysteine]t)) ([1]; Trial 1, 59 Sec) | NMBA peak area ([1]; Trial 2, 67 Sec) [mAU's] | [NMBA] remaining ([1]; Trial 2, 67 Sec) [µM] | ln* = ln (([NMBA]t[L-cysteine]t=0)/([NMBA]t=0[L-cysteine]t)) ([1]; Trial 2, 67 Sec) | NMBA peak area ([1]; Trial 3, 70 Sec) [mAU's] | [NMBA] remaining ([1]; Trial 3, 70 Sec) [µM] | ln* = ln (([NMBA]t[L-cysteine]t=0)/([NMBA]t=0[L-cysteine]t)) ([1]; Trial 3, 70 Sec) | NMBA peak area ([1]; Trial 4, 78 Sec) [mAU's] | [NMBA] remaining ([1]; Trial 4, 78 Sec) [µM] | ln* = ln (([NMBA]t[L-cysteine]t=0)/([NMBA]t=0[L-cysteine]t)) ([1]; Trial 4, 78 Sec) | ka, second order rate constant of L-cysteine adduction [1] [M⁻¹ s⁻¹] | half-life at 200 μg/ml ([1]; pH 7.4 buffered solution with L-cysteine, calculated at [NMBA]0 0.000188 M (200 μg/ml), read-out: L-cysteine adduction reaction half time t1/2) [min] | effect of neostigmine given immediately after the blocking drug ([2]; immediate reversal) | classical antagonism of neuromuscular blockade by neostigmine ([2]; neostigmine given at beginning of spontaneous recovery, e.g. at 2% twitch height) | Duration (± SD/SEM), from injection to recovery of twitch to 95% of baseline ([3]; administered dose 0.04 mg/kg, spontaneous recovery) [min] | ED 95 (± SD/SEM) ([3]; twitch blockade, monkeys under isoflurane, twitch at 0.15 Hz, calculated from dose-response curve) [mg/kg]
1 | COc1cc2c(cc1OC)[C@H](c1cc(OC)c(OC)c(OC)c1)[N@@+](C)(CCCOC(=O)/C=C(\Cl)C(=O)OCCC[N@+]1(C)CCc3cc(OC)c(OC)cc3[C@H]1Cc1cc(OC)c(OC)c(OC)c1)CC2 [Gantacurium, reference compound] | −0.0145 | 476.7 | 33 | −0.46 | 384.2 | 27 | −0.56 | 344.2 | 24 | −0.62 | 281.5 | 20 | −0.73 | 529.6 | 0.2 | ineffective | showed antagonism | – | –
2 | COc1ccc(C[C@@H]2c3cc(OC)c(OC)cc3CC[N@@+]2(C)CCCOC(=O)CCC(=O)OCCC[N@+]2(C)CCc3cc(OC)c(OC)cc3[C@H]2Cc2ccc(OC)c(OC)c2)cc1OC [NB 1163-79] | – | – | – | – | – | – | – | – | – | – | – | – | – | – | – | – | – | 27.2 ± 2.6 | 0.032 ± 0.003
